Laboratory results published in patent US12115151B2, “Method of treatment of p53 WT tumors” (Dana-Farber Cancer Institute, Inc., priority 2018, dated 2024).
“And” between values parts separate entries of the source, which are not always exact repeats. Identical values can stand only once. “Also recorded” adds a separate entry of the source.

Columns and labels:
MKL-1 MCC cells = test: XTT cell viability assay and synergy testing, MKL-1 cells; assay type: cell-based; conditions: 96 hours; for Response-rep1 / Response-rep2: Lenalidomide 0 nM; for Response: relative viability vs untreated; for sensitivity of MKL-1 cells to MDM2 inhibitor (XTT viability): MKL-1 (p53 wild type); for relative viability (XTT), untreated = 1: combinations with a fixed amount of Lenalidomide (5 uM), replicate columns
Method: (§1) Cell viability assays were performed using Cell Proliferation Kit II (XTT) (Roche) according to the manufacturer's instructions and BH3 profiling was described in Pallis et al. (36). Synergy testing was performed using Compusyn and Synergyfinder (28, 29).
The XTT assay was performed to determine the relative viability (% response) normalized to untreated cells.

MKL-1 MCC xenografts = test: Xenograft efficacy study; conditions: individual animals, oral daily, HDM201 40 mg/kg and/or lenalidomide 50 mg/kg; for Tumor Volume Change, Abs Ch = T − T0: tumor volumes in mm3
From the text: The study was terminated when the tumor volume reached the maximum permissible size of 2000 mm3.

CK1α = CK1α (Homo sapiens, UniProt P48729); test: Western blot of CK1α protein levels in MKL-1 cells; assay type: cell-based; conditions: IMiD 10 μM
Method: Confluent cultures of cells were washed with ice-cold phosphate-buffered saline (PBS) and resuspended in EBC lysis buffer (50 mM Tris, pH 8.0, 150 mM NaCl, 0.5% NP-40, 1:10,000-mercaptoethanol, 0.5 mM EDTA) for 10 min on ice and then centrifuged. Clarified lysates were incubated overnight with antibodies and magnetic protein A/G beads (PureProteome magnetic beads, EMD Millipore). […] Quantitative western blotting was performed using the Odyssey near-infrared system (Li-Cor Biotechnology).

MS-1 cells = test: XTT viability assay, MS-1 cells; assay type: cell-based; conditions: MS-1 (p53 mutant); 96 hours
Method: as §1

CK1α, sequence (P48729 whole entry): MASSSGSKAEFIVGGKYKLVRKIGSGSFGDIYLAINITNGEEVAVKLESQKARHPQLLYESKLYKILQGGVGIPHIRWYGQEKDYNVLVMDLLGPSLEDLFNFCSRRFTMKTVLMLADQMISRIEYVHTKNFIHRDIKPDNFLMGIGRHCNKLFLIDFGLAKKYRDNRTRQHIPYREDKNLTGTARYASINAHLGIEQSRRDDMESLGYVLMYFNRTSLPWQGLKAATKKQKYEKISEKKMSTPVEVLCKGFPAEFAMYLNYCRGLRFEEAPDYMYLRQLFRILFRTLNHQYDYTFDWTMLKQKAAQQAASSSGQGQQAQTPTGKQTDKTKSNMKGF

SMILES: COc1ncc(-c2nc3c(n2C(C)C)[C@H](c2ccc(Cl)cc2)N(c2cc(Cl)cn(C)c2=O)C3=O)c(OC)n1 [HDM201, (S)-5-(5-Chloro-1-methyl-2-oxo-1,2-dihydro-pyridin-3-yl)-6-(4-chloro-phenyl)-2-(2,4-dimethoxy-pyrimidin-5-yl)-1-isopropyl-5,6-dihydro-1H-pyrrolo[3,4-d]imidazol-4-one]
- Response-rep1 (MKL-1 MCC cells; HDM201 50 nM): 90.76%
- Response-rep2 (MKL-1 MCC cells; HDM201 50 nM): 92.94%
- Response-rep1 (MKL-1 MCC cells; HDM201 100 nM): 75.8%
- Response-rep2 (MKL-1 MCC cells; HDM201 100 nM): 77.72%
- Response-rep1 (MKL-1 MCC cells; HDM201 150 nM): 53.3961%
- Response-rep2 (MKL-1 MCC cells; HDM201 150 nM): 61.84%
- Response-rep1 (MKL-1 MCC cells; HDM201 180 nM): 33.32%
- Response-rep2 (MKL-1 MCC cells; HDM201 180 nM): 40.87%
- Response (MKL-1 MCC cells; HDM201 50 nM alone): 93.9107%
- Response (MKL-1 MCC cells; HDM201 100 nM alone): 90.5417%
- Response (MKL-1 MCC cells; HDM201 150 nM alone): 94.8184%
- Response (MKL-1 MCC cells; HDM201 180 nM alone): 87.8557%
- Tumor Volume Change, % Ch = (T − T0)/T0 (MKL-1 MCC xenografts; day 0): 0.00%
- Tumor Volume Change, Abs Ch = T − T0 (MKL-1 MCC xenografts; day 0): 0.00
- Tumor Volume Change, % Ch = (T − T0)/T0 (MKL-1 MCC xenografts; day 4): 168.68% and 25.53% and 16.64% and 93.53% and 6.55% and 29.08% and 14.67% and 11.44%
- Tumor Volume Change, Abs Ch = T − T0 (MKL-1 MCC xenografts; day 4): 302.89 and 66.12 and 32.34 and 133.99 and 10.51 and 44.16 and 21.14 and 14.26
- Tumor Volume Change, % Ch = (T − T0)/T0 (MKL-1 MCC xenografts; day 7): 392.40% and 107.65% and 56.29% and 123.49% and 37.00% and 27.47% and 30.43% and 28.15%
- Tumor Volume Change, Abs Ch = T − T0 (MKL-1 MCC xenografts; day 7): 704.61 and 278.82 and 109.40 and 176.91 and 59.41 and 41.71 and 43.86 and 35.09
- Tumor Volume Change, % Ch = (T − T0)/T0 (MKL-1 MCC xenografts; day 11): 465.37% and 122.53% and 125.88% and 248.58% and 101.24% and 14.09% and 37.76% and 61.17%
- Tumor Volume Change, Abs Ch = T − T0 (MKL-1 MCC xenografts; day 11): 835.64 and 317.36 and 244.65 and 356.12 and 162.53 and 21.39 and 54.43 and 76.25
- Tumor Volume Change, % Ch = (T − T0)/T0 (MKL-1 MCC xenografts; day 14): 597.67% and 128.4% and 191.55% and 295.64% and 94.41% and 41.69% and 77.45% and 56.59%
- Tumor Volume Change, Abs Ch = T − T0 (MKL-1 MCC xenografts; day 14): 1073.19 and 332.66 and 372.29 and 423.53 and 151.58 and 63.30 and 111.64 and 70.55
- Tumor Volume Change, % Ch = (T − T0)/T0 (MKL-1 MCC xenografts; day 18): 741.47% and 4165.70% and 234.58% and 350.27% and 114.06% and 20.72% and 81.45% and 83.83%
- Tumor Volume Change, Abs Ch = T − T0 (MKL-1 MCC xenografts; day 18): 1331.39 and 429.17 and 455.90 and 501.79 and 183.12 and 31.46 and 117.41 and 104.49

SMILES: O=C1CCC(N2C(=O)c3ccccc3C2=O)C(=O)N1 (centres unmarked) [thalidomide]
- CK1α protein levels (CK1α): did not reduce CK1α protein levels; also recorded: not thalidomide

SMILES: Nc1cccc2c1C(=O)N(C1CCC(=O)NC1=O)C2=O (centres unmarked) [pomalidomide]
- CK1α protein levels (CK1α): did not reduce CK1α protein levels; also recorded: to a lesser degree

SMILES: CC(C)[C@@H](CS(=O)(=O)C(C)C)N1C(=O)[C@@](C)(CC(=O)O)C[C@H](c2cccc(Cl)c2)[C@H]1c1ccc(Cl)cc1 [AMG232]
- sensitivity of MKL-1 cells to MDM2 inhibitor (XTT viability) (MKL-1 MCC cells): sensitive
- sensitivity of MS-1 cells to MDM2 inhibitor (XTT viability) (MS-1 cells): not MS-1 cells were sensitive

SMILES: COc1cc(C(=O)O)ccc1NC(=O)[C@@H]1N[C@@H](CC(C)(C)C)[C@](C#N)(c2ccc(Cl)cc2F)[C@H]1c1cccc(Cl)c1F [RG7388]
- sensitivity of MKL-1 cells to MDM2 inhibitor (XTT viability) (MKL-1 MCC cells): sensitive
- relative viability (XTT), untreated = 1 (MKL-1 MCC cells; Nutlin-3 or RG7388 level 25 (unit not given)): 0.7819 and 0.7111 and 0.8222
- relative viability (XTT), untreated = 1 (MKL-1 MCC cells; Nutlin-3 or RG7388 level 50 (unit not given)): 0.6836 and 0.5814 and 0.6885
- relative viability (XTT), untreated = 1 (MKL-1 MCC cells; Nutlin-3 or RG7388 level 75 (unit not given)): 0.553 and 0.4338 and 0.5431
- relative viability (XTT), untreated = 1 (MKL-1 MCC cells; Nutlin-3 or RG7388 level 90 (unit not given)): 0.4663 and 0.3695 and 0.5108
- sensitivity of MS-1 cells to MDM2 inhibitor (XTT viability) (MS-1 cells): not MS-1 cells were sensitive

SMILES: CNc1ncc(-n2nc(N)c3cc(F)c(-c4ccc(O)c5ccccc45)cc32)c(Cl)c1C [SC-24-UR99, 4-(3-amino-1-(4-chloro-5-methyl-6-(methylamino)pyridin-3-yl)-5-fluoro-1H-indazol-6-yl)naphthalen-1-ol]
- Response (MKL-1 MCC cells; SC-24-UR99 50 nM alone): 103.6933% and 100.5561%
- Response (MKL-1 MCC cells; SC-24-UR99 100 nM alone): 99.5168% and 105.263%
- Response (MKL-1 MCC cells; SC-24-UR99 150 nM alone): 99.3633% and 93.4308%
- Response (MKL-1 MCC cells; SC-24-UR99 180 nM alone): 92.5016% and 89.8385%
